The record followed here is patent US7186825B2, “Conformationally restricted polyamine analogs as disease therapies” (Cellgate, Inc., priority 1999, dated 2007).

Molecules are shown by their SMILES. Read-outs that look alike come from different tables or passages of the source.

Common to all, as to type: cell-based
In assay [1] the test system is human prostate cancer cells DU145. Put plainly: MTT assay, survival/growth of cultured human prostate cancer cells DU145. As to conditions: for EC50: figure legends, survival of cultured DU145 cells, MTT, six days after drug treatment, read-out: ED50 (the source's name); for IC50: DU-145. The method, then: (§1) Human breast cancer cell line MCF7 was grown in Richter's Improved Modified Eagle's Medium supplemented with 10% fetal bovine serum (FBS) and 2.2 g/L sodium bicarbonate. Human brain tumor cell line U251 MG-NCI was grown in Dulbecco's Modified Eagle's Medium supplemented with 10% FBS. Human lung cancer cell line A549 was grown in Ham's F-12K medium (Cellgro, Mediatech, Inc., VA), supplemented with 10% FBS and 2 mM L-glutamine. Human colon cancer cell line HT29 was cultured in McCoy's 5A medium (Gibco, BRL, Gaithersburg, Md.) supplemented with 10% FBS. Human prostate cancer cell lines PC-3, LNCAP and DuPro were grown in RPMI 1640 Medium (Cellgro, Mediatech, Inc., VA) supplemented with 10% FBS. Another human prostate cancer cell line DU145 was grown in Dulbecco's Modified Eagle's Medium (Gibco, BRL, Gaithersburg, Md.) supplemented with 5% FBS. The A549, MCF7, PC3, LNCAP and DuPro cell lines were cultured in 100 units/mL penicillin and 100 μg/mL streptomycin. HT29 and U251MG cell lines were grown in 50 μg/mL gentamycin (Gibco, BRL, Gaithersburg, Md.). DU145 cell line was maintained in 1% antibitic-antimycotic solution (Sigma, St. Louis, Mo.). The cell cultures were maintained at 37° C. in 5% CO2/95% humidified air. DuPro cells were obtained from M. Eileen Dolan, University of Chicago. All other cells are available from the American Type Culture Collection, Rockville, Md.
(§2) A conventional MTT assay was used to evaluate percent cell survival. Exponentially growing monolayer cells were plated in 96-well plates at a density of 500 cells per well and allowed to grow for 24 hours. Serial dilutions of the drugs were added to the wells. Six days after drug treatment, 25 μl of MTT solution (5 mg/ml) was added to each well and incubated for 4 hours at 37° C. Then 100 μl of lysis buffer (20% sodium dodecyl sulfate, 50% DMF, and 0.8% acetic acid, pH 4.7) was added to each well and incubated for an additional 22 hours. A microplate reader (“EMAX”-brand, Molecular Devices, Sunnyvale, Calif.) set at 570 nm was used to determine the optical density of the cultures. Results are expressed as a ratio of the optical density in drug-treated wells to the optical density in wells treated with vehicle only.
(§3) Using the protocols of Example 2, the porphyrin-polyamine conjugates were tested for activity in vitro in various cancer cell lines.
(In general: Formazan colour is commonly taken as a measure of viable cells.)

In assay [2] the test system is human prostate cancer cells PC3. Put plainly: MTT assay, survival/growth of cultured human prostate cancer cells PC3. To be noted: for EC50: figure legends, survival of cultured PC3 cells, MTT, six days after drug treatment, read-out: ED50 (the source's name). The method, then:
as §1, §2, §3

Assay [3] deals with human lung cancer cells A549. Nature of the assay: MTT assay, survival/growth of cultured human lung cancer cells A549. To be noted: for EC50: figure legends, survival of cultured A549 cells, MTT, six days after drug treatment, read-out: ED50 (the source's name); for IC50: read-out: concentration needed for 50% growth inhibition (ID50), Table 3, A549. The method, then:
(§4) As shown in Table 3 and FIGS. 1–32, several novel conformationally restricted polyamine analogs were tested for anti-proliferative properties against cancer cells.
as §1, §2

The subject of assay [4] is human breast cancer cells MCF7. Put plainly: MTT assay, survival/growth of cultured human breast cancer cells MCF7. As to conditions: for EC50: figure legends, survival of cultured MCF7 cells, MTT, six days after drug treatment, read-out: ED50 (the source's name); for IC50: read-out: concentration needed for 50% growth inhibition (ID50), Table 3, MCF7. The method, then: as §4, §1, §2

For assay [5], the system named is human colon cancer cells HT29. Put plainly: MTT assay, survival/growth of cultured human colon cancer cells HT29. As to conditions: for EC50: figure legends, survival of cultured HT29 cells, MTT, six days after drug treatment, read-out: ED50 (the source's name); for IC50: read-out: concentration needed for 50% growth inhibition (ID50), Table 3, HT-29. The method, then: as §4, §1, §2

Assay [6] deals with human brain tumor cells U251 MG NCI. Put plainly: MTT assay, survival/growth of cultured human brain tumor cells U251 MG NCI. The procedure: as §1, §2
The subject of assay [7] is human prostate cancer cells DUPRO. Put plainly: MTT assay, survival/growth of cultured human prostate cancer cells DUPRO. The procedure: as §1, §2, §3
Where [8] appears, read: Homo sapiens, read-out: concentration needed for 50% growth inhibition (ID50), Table 3.
Setting [9] is: Homo sapiens, read-out: concentration needed for 50% growth inhibition (ID50), Table 3, PC-3.
The mark [10] stands for this setting: Homo sapiens, 144 h, figure legends, survival of cultured DUPRO cells, MTT, six days after drug treatment, read-out: ED50 (the source's name).
Setting [11] is: Homo sapiens, read-out: concentration needed for 50% growth inhibition (ID50), Table 3, DUPRO.

As for `CCNCCCNCCCCNCCCNCC` [BE-343, N1,N12-bis(ethyl) spermine, reference compound], the EC50 in assay [1] came out at 44 nM; in assay [2], 240 nM; in assay [3], 200 nM; in assay [4], 500 nM; in assay [5], 600 nM; in assay [6] (figure legends, survival of cultured U251 MG NCI cells, MTT, six days after drug treatment, read-out: ED50 (the source's name)), 140 nM.
In the case of `CNCCCNC[C@H]1CC[C@H]1CNCCCNC` [SL-11090], the IC50 is over 31.2 µM in assay [1] (setting [8]); over 31.2 µM in assay [2] (setting [9]); over 31200 nM in assay [3] (Homo sapiens); over 31200 nM in assay [4] (Homo sapiens); over 31200 nM in assay [5] (Homo sapiens); over 31200 nM in assay [6] (Homo sapiens, U-251, read-out: concentration needed for 50% growth inhibition (ID50), Table 3, U251MG).
Turning to `CCNC/C=C\CNC/C=C\CNCCCCNCC` [SL-11119], the EC50 was 80 nM in assay [1] and 440 nM in assay [7] (figure legends, survival of cultured DUPRO cells, MTT, six days after drug treatment, read-out: ED50 (the source's name)). In addition, the IC50 in assay [1] (read-out: concentration needed for 50% growth inhibition (ID50), Table 3) is 0.08 µM; in assay [2] (read-out: concentration needed for 50% growth inhibition (ID50), Table 3, PC-3), over 31.2 µM; in assay [7] (read-out: concentration needed for 50% growth inhibition (ID50), Table 3, DUPRO), 0.44 µM; in assay [5], 970 nM.
As to `CCNCCCCNC/C=C\CNCCCCNCCCCNCC` [SL-11122], the EC50 was 80 nM in assay [1] (Homo sapiens, DU-145, 144 h); over 31200 nM in assay [2] (Homo sapiens, PC-3, 144 h); over 31200 nM in assay [3] (Homo sapiens, 144 h); over 31200 nM in assay [4] (Homo sapiens, 144 h); 560 nM in assay [7] (setting [10]). For the same molecule, the IC50 in assay [1] (setting [8]) was 0.8 µM; in assay [2] (setting [9]), over 31.2 µM; in assay [3] (Homo sapiens), over 31200 nM; in assay [4] (Homo sapiens), over 31200 nM; in assay [7] (setting [11]), 0.56 µM; in assay [5] (Homo sapiens), 800 nM.
As to `CCNCCCCNC/C=C\CNC/C=C\CNCCCCNCC` [SL-11123], the EC50 is 510 nM in assay [1] (Homo sapiens, DU-145, 144 h); over 31200 nM in assay [2] (Homo sapiens, PC-3, 144 h); over 31200 nM in assay [3] (Homo sapiens, 144 h); over 31200 nM in assay [4] (Homo sapiens, 144 h). Further, the IC50 in assay [1] (setting [8]) was 0.51 µM; in assay [2] (setting [9]), over 31.2 µM; in assay [3] (Homo sapiens), over 31200 nM; in assay [4] (Homo sapiens), over 31200 nM; in assay [7] (setting [10]), over 31.2 µM; in assay [7] (setting [11]), over 31.2 µM. The IC50 in assay [5] (Homo sapiens) came out at 10400 nM.
With `CCNC1CCCC1CNCCCNCC1CCCC1NCC` (centres unmarked) [SL-11124], the EC50 was over 31200 nM in assay [1] (Homo sapiens, DU-145, 144 h); over 31200 nM in assay [2] (Homo sapiens, PC-3, 144 h); over 31200 nM in assay [3] (Homo sapiens, 144 h); over 31200 nM in assay [4] (Homo sapiens, 144 h); over 31200 nM in assay [7] (setting [10]); over 31200 nM in assay [5] (Homo sapiens, HT-29, 144 h). For the same molecule, the IC50 is over 31.2 µM in assay [1] (setting [8]); over 31.2 µM in assay [2] (setting [9]); over 31200 nM in assay [3] (Homo sapiens); over 31200 nM in assay [4] (Homo sapiens); over 31.2 µM in assay [7] (setting [11]); over 31200 nM in assay [5] (Homo sapiens).
In the case of `CCNC/C=C\CNC/C=C\CNCCCCNCCCCNCC` [SL-11127], the EC50 in assay [1] (Homo sapiens, DU-145, 144 h) is 220 nM; in assay [2] (Homo sapiens, PC-3, 144 h) it was over 31200 nM; in assay [7] (setting [10]), 1300 nM. Moreover, the IC50 in assay [1] (setting [8]) is 0.22 µM; in assay [2] (setting [9]), over 31.2 µM; in assay [7] (setting [11]) it was 1.3 µM; in assay [5] (Homo sapiens) it was 2910 nM.
On to `CCNC/C=C\CNC/C=C\CNCCCCNC/C=C\CNCC` [SL-11129], for which the EC50 in assay [1] (Homo sapiens, DU-145, 144 h) worked out at 320 nM; in assay [2] (Homo sapiens, PC-3, 144 h), 1700 nM. Further, the IC50 in assay [2] (setting [9]) is 1.7 µM; in assay [7] (setting [10]), over 31.2 µM.
For the molecule `CCNC/C=C\CNC/C=C\CNC/C=C\CNCCCCNCC` [SL-11130], the EC50 in assay [1] (Homo sapiens, DU-145, 144 h) was 430 nM; in assay [2] (Homo sapiens, PC-3, 144 h), over 31200 nM. Moreover, the IC50 was 0.43 µM in assay [1] (setting [8]), over 31.2 µM in assay [2] (setting [9]) and over 31.2 µM in assay [7] (setting [10]).
With `CCNCCCNCCCNCC1CCCC1NCC` (centres unmarked) [SL-11132], the EC50 in assay [1] (Homo sapiens, DU-145, 144 h) was 15 nM; in assay [2] (Homo sapiens, PC-3, 144 h), over 31200 nM; in assay [7] (setting [10]), over 31200 nM.
Take `CCNC/C=C\CNCCCCNC/C=C\CNCCCCNCC` [SL-11133]: the EC50 in assay [1] (Homo sapiens, DU-145, 144 h) was 340 nM; in assay [2] (Homo sapiens, PC-3, 144 h), over 31200 nM. Moreover, in assay [7] (setting [10]), the IC50 stood at 31.2 µM.
On to `CCNCCCCNCCCCNCCCCNCCCC1=C(C)c2cc3[nH]c(cc4nc(cc5[nH]c(cc1n2)c(CCCNCCCCNCCCCNCCCCNCC)c5C)C(CC)=C4C)c(CC)c3C` [SL-11202], for which the IC50 in assay [1] (Homo sapiens, Table 4, DU145, growth by MTT assay, read-out: IC50 (μM) in different cell lines) was determined as 4.6 µM; in assay [2] (Homo sapiens, Table 4, PC3, growth by MTT assay, read-out: IC50 (μM) in different cell lines), 1.15 µM; in assay [7] (Homo sapiens, Table 4, DUPRO, growth by MTT assay, read-out: IC50 (μM) in different cell lines), 1.3 µM.
